Reference: patent US7332501B2, “Indol-3-yl-carbonyl-spiro-piperidine derivatives as V1a receptor antagonists” (Hoffmann-La Roche Inc., priority 2005, dated 2008)
pKi: −log10 of the molar value.

Target: T1, human V1a receptor (Homo sapiens, UniProt P37288)
T1 construct: expressed in transfected cells; host or cells: HEK293 cells, transiently transfected; cell membranes
Assay: human V1a receptor binding (3H-Vasopressin SPA, HEK293 membranes)
Settings: displacement of 4 nM 3H-Vasopressin, membranes of HEK293 cells transiently transfected with human V1a receptor; Ki from IC50 by Cheng-Prussoff
Description: The human V1a receptor was cloned by RT-PCR from total human liver RNA. The coding sequence was subcloned in an expression vector after sequencing to confirm the identity of the amplified sequence. […] Cell membranes were prepared from HEK293 cells transiently transfected with the expression vector and grown in 20 liter fermenters with the following protocol.
50 g cells are resuspended in 30 ml freshly prepared ice cold Lysis buffer (50 mM HEPES, 1 mM EDTA, 10 mM MgCl2 adjusted to pH=7.4+complete cocktail of protease inhibitor (Roche Diagnostics)). The cells are homogenized with Polytron for 1 min and sonicated on ice for 2×2 minutes at 80% intensity (Vibracell sonicator). The preparation is centrifuged 20 min at 500 g at 4° C., the pellet is discarded and the supernatant centrifuged 1 hour at 43,000 g at 4° C. (19,000 rpm). The pellet is resuspended in 12.5 ml Lysis buffer+12.5 ml Sucrose 20% and homogenized using a Polytron for 1-2 min. The protein concentration is determined by the Bradford method and aliquots are stored at −80° C. until use. For binding studies 60 mg Yttrium silicate SPA beads (Amersham) are mixed with an aliquot of membrane in binding buffer (50 mM Tris, 120 mM NaCl, 5 mM KCl, 2 mM CaCl2, 10 mM MgCl2) for 15 minutes with mixing. 50 ul of bead/membrane mixture is then added to each well of a 96 well plate, followed by 50 ul of 4 nM 3H-Vasopressin (American Radiolabeled Chemicals). For total binding measurement 100 ul of binding buffer are added to the respective wells, for non-specific binding 100 ul of […] cold vasopressin and for compound testing 100 ul of a serial dilution of each compound in 2% DMSO. The plate is incubated 1 h at room temperature, centrifuged 1 min at 1000 g and counted on a Packard Top-Count. Non-specific binding counts are subtracted from each well and data is normalized to the maximum specific binding set at 100%. To calculate an IC 50 the curve is fitted using a non-linear regression model (XLfit), and the Ki is calculated using the Cheng-Prussoff equation.

T1 sequence (P37288 whole entry): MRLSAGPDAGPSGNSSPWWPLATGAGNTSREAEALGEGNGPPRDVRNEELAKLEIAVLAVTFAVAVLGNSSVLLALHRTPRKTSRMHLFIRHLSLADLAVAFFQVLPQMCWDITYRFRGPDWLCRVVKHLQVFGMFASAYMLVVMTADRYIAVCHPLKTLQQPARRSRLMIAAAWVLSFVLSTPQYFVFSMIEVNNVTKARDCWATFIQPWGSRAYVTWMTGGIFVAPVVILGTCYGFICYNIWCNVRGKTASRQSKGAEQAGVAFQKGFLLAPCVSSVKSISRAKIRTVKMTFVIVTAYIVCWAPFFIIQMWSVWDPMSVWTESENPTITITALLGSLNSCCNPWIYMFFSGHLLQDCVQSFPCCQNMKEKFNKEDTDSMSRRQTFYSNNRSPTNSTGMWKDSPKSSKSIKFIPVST

Row | SMILES | pKi
1 | Cc1c(C(=O)N2CCC3(CC2)OCc2ccc(Cl)cc23)c2ccccc2n1Cc1ccccc1 [Example 40, 1′-[(1-benzyl-2-methyl-1H-indol-3-yl)carbonyl]-6-chloro-3H-spiro[2-benzofuran-1,4′-piperidine]] | 8.54
2 | Cc1[nH]c2ccccc2c1C(=O)N1CCC2(CC1)OCc1ccccc12 [Example 43, 1′-[(2-methyl-1H-indol-3-yl)carbonyl]-3H-spiro[2-benzofuran-1,4′-piperidine]] | 7.96
3 | Cc1c(C(=O)N2CCC3(CC2)OCc2ccccc23)c2ccccc2n1C(=O)c1ccccc1 [Example 44, 1′-[(1-benzoyl-2-methyl-1H-indol-3-yl)carbonyl]-3H-spiro[2-benzofuran-1,4′-piperidine]] | 7.96
4 | Cc1c(C(=O)N2CCC3(CC2)OCc2ccccc23)c2ccccc2n1S(=O)(=O)c1ccccc1 [Example 45, 1′-{[2-methyl-1-(phenylsulfonyl)-1H-indol-3-yl]carbonyl}-3H-spiro[2-benzofuran-1,4′-piperidine]] | 8.02
5 | Cc1c(C(=O)N2CCC3(CC2)OCc2ccccc23)c2ccccc2n1CC1CCCCC1 [Example 46, 1′-{[1-(cyclohexylmethyl)-2-methyl-1H-indol-3-yl]carbonyl}-3H-spiro[2-benzofuran-1,4′-piperidine]] | 9.10
6 | Cc1c(C(=O)N2CCC3(CC2)OCc2ccccc23)c2ccccc2n1Cc1cccc(F)c1 [Example 47, 1′-{[1-(3-fluorobenzyl)-2-methyl-1H-indol-3-yl]carbonyl}-3H-spiro[2-benzofuran-1,4′-piperidine]] | 9.30
7 | Cc1c(C(=O)N2CCC3(CC2)OCc2ccccc23)c2ccccc2n1Cc1ccccc1OC(F)(F)F [Example 48, 1′-({2-methyl-1-[2-(trifluoromethoxy)benzyl]-1H-indol-3-yl}carbonyl)-3H-spiro[2-benzofuran-1,4′-piperidine]] | 8.59
8 | Cc1cc(C)cc(Cn2c(C)c(C(=O)N3CCC4(CC3)OCc3ccccc34)c3ccccc32)c1 [Example 49, 1′-{[1-(3,5-dimethylbenzyl)-2-methyl-1H-indol-3-yl]carbonyl}-3H-spiro[2-benzofuran-1,4′-piperidine]] | 8.62
9 | COC(=O)c1ccc(Cn2c(C)c(C(=O)N3CCC4(CC3)OCc3ccccc34)c3ccccc32)cc1 [Example 50, methyl 4-{[2-methyl-3-(1′H,3H-spiro[2-benzofuran-1,4′-piperidin]-1′-ylcarbonyl)-1H-indol-1-yl]methyl}benzoate] | 7.97
10 | Cc1c(C(=O)N2CCC3(CC2)OCc2ccccc23)c2ccccc2n1Cc1ccc(C#N)cc1 [Example 51, 4-{[2-methyl-3-(1′H,3H-spiro[2-benzofuran-1,4′-piperidin]-1′-ylcarbonyl)-1H-indol-1-yl]methyl}benzonitrile] | 8.23
11 | Cc1c(C(=O)N2CCC3(CC2)OCc2ccccc23)c2ccccc2n1Cc1cc(F)cc(F)c1 [Example 52] | 8.68
12 | Cc1c(C(=O)N2CCC3(CC2)OCc2ccccc23)c2ccccc2n1Cc1ccccc1Cl [Example 53, 1′-{[1-(2-chlorobenzyl)-2-methyl-1H-indol-3-yl]carbonyl}-3H-spiro[2-benzofuran-1,4′-piperidine]] | 8.77
13 | COc1ccccc1Cn1c(C)c(C(=O)N2CCC3(CC2)OCc2ccccc23)c2ccccc21 [Example 54, 1′-{[1-(2-methoxybenzyl)-2-methyl-1H-indol-3-yl]carbonyl}-3H-spiro[2-benzofuran-1,4′-piperidine]] | 8.60
14 | COc1ccc(Cn2c(C)c(C(=O)N3CCC4(CC3)OCc3ccccc34)c3ccccc32)cc1 [Example 55, 1′-{[1-(4-methoxybenzyl)-2-methyl-1H-indol-3-yl]carbonyl}-3H-spiro[2-benzofuran-1,4′-piperidine]] | 8.10
15 | COc1ccccc1-c1nc(Cn2c(C)c(C(=O)N3CCC4(CC3)OCc3ccccc34)c3ccccc32)c(C)o1 [Example 58, 1′-[(1-{[2-(2-methoxyphenyl)-5-methyl-1,3-oxazol-4-yl]methyl}-2-methyl-1H-indol-3-yl)carbonyl]-3H-spiro[2-benzofuran-1,4′-piperidine]] | 7.91
16 | O=C(c1cn(Cc2ccccc2)c2ccccc12)N1CCC2(CC1)OCc1ccccc12 [Example 68, 1′-[(1-benzyl-1H-indol-3-yl)carbonyl]-3H-spiro[2-benzofuran-1,4′-piperidine]] | 8.16
17 | O=C(c1c[nH]c2cc(Cl)ccc12)N1CCC2(CC1)OCc1ccccc12 [Example 69, 1′-[(6-chloro-1H-indol-3-yl)carbonyl]-3H-spiro[2-benzofuran-1,4′-piperidine]] | 8.37

Row | SMILES | pKi
18 | CN(C)CCn1cc(C(=O)N2CCC3(CC2)OCc2ccccc23)c2ccccc21 [Example 71, N,N-dimethyl-2-[3-(1′H,3H-spiro[2-benzofuran-1,4′-piperidin]-1′-ylcarbonyl)-1H-indol-1-yl]ethanamine] | 8.25
19 | CCC(C)C(=O)c1[nH]c2ccccc2c1C(=O)N1CCC2(CC1)OCc1ccccc12 (stereo not drawn) [Example 72, 2-methyl-1-[3-(1′H,3H-spiro[2-benzofuran-1,4′-piperidin]-1′-ylcarbonyl)-1H-indol-2-yl]butan-1-one] | 8.54
20 | N#CCn1cc(C(=O)N2CCC3(CC2)OCc2ccccc23)c2ccc(Cl)cc21 [Example 76, [6-chloro-3-(1′H,3H-spiro[2-benzofuran-1,4′-piperidin]-1′-ylcarbonyl)-1H-indol-1-yl]acetonitrile] | 8.77
21 | O=C(c1c[nH]c2cc(Cl)c(F)cc12)N1CCC2(CC1)COc1ccccc12 [Example 80, 1′-[(6-chloro-5-fluoro-1H-indol-3-yl)carbonyl]spiro[1-benzofuran-3,4′-piperidine]] | 8.13
22 | CN(C)CCn1cc(C(=O)N2CCC3(CC2)COc2ccccc23)c2ccc(Cl)cc21 [Example 81, 2-[6-chloro-3-(1′H-spiro[1-benzofuran-3,4′-piperidin]-1′-ylcarbonyl)-1H-indol-1-yl]-N,N-dimethylethanamine] | 8.30
23 | O=C(c1cn(CCN2CCCC2)c2cc(Cl)ccc12)N1CCC2(CC1)COc1ccccc12 [Example 82, 1′-{[6-chloro-1-(2-pyrrolidin-1-ylethyl)-1H-indol-3-yl]carbonyl}spiro[1-benzofuran-3,4′-piperidine]] | 7.89
24 | O=C(c1cn(CCN2CCOCC2)c2cc(Cl)ccc12)N1CCC2(CC1)COc1ccccc12 [Example 84, 1′-{[6-chloro-1-(2-morpholin-4-ylethyl)-1H-indol-3-yl]carbonyl}spiro[1-benzofuran-3,4′-piperidine]] | 8.44
25 | CCN(CC)CCn1cc(C(=O)N2CCC3(CC2)COc2ccccc23)c2ccc(Cl)cc21 [Example 85, 2-[6-chloro-3-(1′H-spiro[1-benzofuran-3,4′-piperidin]-1′-ylcarbonyl)-1H-indol-1-yl]-N,N-diethylethanamine] | 7.99
26 | O=C(c1cn(CCn2cccc2)c2cc(Cl)ccc12)N1CCC2(CC1)COc1ccccc12 [Example 86, 1′-({6-chloro-1-[2-(1H-pyrrol-1-yl)ethyl]-1H-indol-3-yl}carbonyl)spiro[1-benzofuran-3,4′-piperidine]] | 7.88
27 | O=C(Cn1cc(C(=O)N2CCC3(CC2)COc2ccccc23)c2ccc(Cl)cc21)N1CCCCC1 [Example 87, 1′-{[6-chloro-1-(2-oxo-2-piperidin-1-ylethyl)-1H-indol-3-yl]carbonyl}spiro[1-benzofuran-3,4′-piperidine]] | 8.46
28 | O=C(c1cn(Cc2cc(F)cc(F)c2)c2cc(Cl)ccc12)N1CCC2(CC1)CNc1ccccc12 [Example 93] | 7.86
29 | O=C(c1cn(Cc2cccc(F)c2)c2cc(Cl)ccc12)N1CCC2(CC1)CNc1ccccc12 [Example 94] | 8.39
30 | CCN(CC)C(=O)Cn1cc(C(=O)N2CCC3(CC2)CNc2ccccc23)c2ccc(Cl)cc21 [Example 99, 2-[6-Chloro-3-(1,2-dihydro-1′H-spiro[indole-3,4′-piperidin]-1′-ylcarbonyl)-1H-indol-1-yl]-N,N-diethylacetamide] | 8.24
31 | CN(C)C(=O)Cn1cc(C(=O)N2CCC3(CC2)CNc2ccccc23)c2ccc(Cl)cc21 [Example 100, 2-[6-Chloro-3-(1,2-dihydro-1′H-spiro[indole-3,4′-piperidin]-1′-ylcarbonyl)-1H-indol-1-yl]-N,N-dimethylacetamide] | 8.47
32 | O=C(Cn1cc(C(=O)N2CCC3(CC2)CNc2ccccc23)c2ccc(Cl)cc21)c1ccccn1 [Example 101, 2-[6-Chloro-3-(1,2-dihydro-1′H-spiro[indole-3,4′-piperidin]-1′-ylcarbonyl)-1H-indol-1-yl]-1-pyridin-2-ylethanone] | 7.55
33 | O=C(c1cn(Cc2cccnc2)c2cc(Cl)ccc12)N1CCC2(CC1)CNc1ccccc12 [Example 102, 1′-{[6-Chloro-1-(pyridin-3-ylmethyl)-1H-indol-3-yl]carbonyl}-1,2-dihydrospiro[indole-3,4′-piperidine]] | 7.60
